Measured values taken from patent publication US20100111947A1, “PHARMACEUTICAL COMPOSITION COMPRISING ANTIBODY COMPOSITION WHICH SPECIFICALLY BINDS TO GANGLIOSIDE GM2” (KYOWA HAKKO KIRIN CO., LTD., priority 2008, published 2010).

Tested on: KMS-11 cells (human multiple myeloma cell)
Assay: Antitumor effect against KMS-11 cells transplanted subcutaneously into SCID mice (tumor volume V/V0, T/C)
Format: in vivo
Conditions: SCID mouse, KMS-11 xenograft, KM8969 1 mg/kg, L-PAM 3 mg/kg, tail vein
Description: Ten days after the cell transplantation, a diameter of a tumor was measured with calipers, and a tumor volume was calculated using the following formula.
(Formula) Tumor volume=short diameter×short diameter […]×0.5
Individuals having the tumor volume within the range of 140 to 184 mm^3 were selected, and grouped such that the average of tumor volume was to be almost the same. Each of following administration groups A to D was administered to the mice. Incidentally, the grouped day was defined as Day 0.
C. Group administering Melphalan (hereinafter referred to as L-PAM; Sigma) solely: 3 mg/kg was administered on Day 0 and Day 7.
With time, the tumor volume was measured. The antitumor effect was evaluated by comparing average values of a tumor volume change (V/V0) when the tumor volume on Day 0 in each group was defined as V0.

For N[C@@H](Cc1ccc(N(CCCl)CCCl)cc1)C(=O)O [L-PAM, Melphalan], the “T/C (V/V0 of group divided by V/V0 of negative control group)” value (Day 0) was 1.0000, the “T/C (V/V0 of group divided by V/V0 of negative control group)” value (Day 4) was 0.8624 and the “T/C (V/V0 of group divided by V/V0 of negative control group)” value (Day 7) was 0.8354. For the same compound, the “T/C (V/V0 of group divided by V/V0 of negative control group)” value (Day 10) was 0.6430, the “T/C (V/V0 of group divided by V/V0 of negative control group)” value (Day 14) was 0.5255 and the “T/C (V/V0 of group divided by V/V0 of negative control group)” value (Day 17) was 0.4159. The “T/C (V/V0 of group divided by V/V0 of negative control group)” value (Day 21) was 0.2881, the “T/C (V/V0 of group divided by V/V0 of negative control group)” value (Day 24) was 0.2872 and the “T/C (V/V0 of group divided by V/V0 of negative control group)” value (Day 28) was 0.2348.
